{"source": "patent US7025999B2", "about": "“Chewing gum having prolonged sensory benefits” (Wm. Wrigley Jr. Company, priority 2001, dated 2006)", "test": "Relative sweetness of hydrophobic sweetener compounds (factor used for the Sucrose Equivalent calculation)", "details": "Sucrose Equivalent = weight percent in the chewing gum multiplied by relative sweetness", "source_text": "It should be appreciated that due to the slow release of hydrophobic sweeteners from the chewing gum, it is believed that higher levels of the hydrophobic sweeteners as compared to typical water soluble sweeteners may be necessary to provide the desired level of sweetness or sweetness intensity. The amount can suitably vary depending on any number of factors, such as the desired level of sweetness and the relative sweetness intensity specific to the hydrophobic sweetener compound. As detailed below, the relative sweetness can vary depending on the type of hydrophobic sweetener compound. In an embodiment, chewing gum includes the hydrophobic sweetener compound in an amount ranging from about 50 to about 5000 Sucrose Equivalents. The Sucrose Equivalent factor is determined by multiplying the weight percent of the hydrophobic compound in the chewing gum by its relative sweetness. By way of example and not limitation, the following tables illustrate a variety of hydrophobic sweetener compounds representative of the hydrophobic sweetener compounds of Formulas I–XI, as previously discussed. The tables also indicate the relative sweetness of the hydrophobic sweetener compounds. As previously discussed, this factor can be utilized to calculate the Sucrose Equivalent calculation which relates to the amount of hydrophobic sweetener in the chewing gum."}
{"smiles": "COc1ccc(C2Sc3ccccc3S2)cc1O", "note": "[Compound 13]", "values": [{"measurement": "Relative Sweetness", "value": 200}]}
{"smiles": "COc1ccc(C2OCc3ccccc3S2)cc1O", "note": "(stereo not shown) [Compound 8]", "values": [{"measurement": "Relative Sweetness", "value": 9000}]}
{"smiles": "COc1ccc(C2COc3ccccc3O2)cc1O", "note": "(stereo not shown) [Compound 4]", "values": [{"measurement": "Relative Sweetness", "value": 450}]}
{"smiles": "COc1ccc([S+]([O-])c2ccccc2C(=O)O)cc1", "note": "(stereo not shown) [Compound 23]", "values": [{"measurement": "Relative Sweetness", "value": 50}]}
{"smiles": "COc1ccc(C(=O)c2ccccc2C(=O)O)cc1O", "note": "[Compound 21]", "values": [{"measurement": "Relative Sweetness", "value": 250}]}
{"smiles": "COc1ccc(C2Oc3ccccc3O2)cc1O", "note": "[Compound 15]", "values": [{"measurement": "Relative Sweetness", "value": 150}]}
{"smiles": "COc1ccc(C2COc3ccccc3C2)cc1O", "note": "(stereo not shown) [Compound 1]", "values": [{"measurement": "Relative Sweetness", "value": 200}]}
{"smiles": "COc1ccc(C2CS(=O)(=O)c3ccccc3O2)cc1O", "note": "(stereo not shown) [Compound 19]", "values": [{"measurement": "Relative Sweetness", "value": 50}]}
{"smiles": "COc1ccc(OC(=O)c2ccccc2C(=O)O)cc1", "note": "[Compound 34]", "values": [{"measurement": "Relative Sweetness", "value": 10}]}
{"smiles": "COc1ccc(C2OCc3ccccc3O2)cc1O", "note": "(stereo not shown) [Compound 5]", "values": [{"measurement": "Relative Sweetness", "value": 3000}]}
{"smiles": "O=C(O)c1ccccc1C(=O)c1ccc(O)cc1", "note": "[Compound 30]", "values": [{"measurement": "Relative Sweetness", "value": 200}]}
{"smiles": "COc1ccc(C2SCc3ccccc3S2)cc1O", "note": "(stereo not shown) [Compound 11]", "values": [{"measurement": "Relative Sweetness", "value": 1000}]}
{"smiles": "COc1ccc(C2Oc3ccccc3S2)cc1O", "note": "(stereo not shown) [Compound 14]", "values": [{"measurement": "Relative Sweetness", "value": 300}]}
{"smiles": "COc1ccc(C2Cc3ccccc3CO2)cc1O", "note": "(stereo not shown) [Compound 2]", "values": [{"measurement": "Relative Sweetness", "value": 350}]}
{"smiles": "COc1ccc(CCC(=O)c2cccc(C(=O)O)c2)cc1O", "note": "[Compound 25]", "values": [{"measurement": "Relative Sweetness", "value": 80}]}
{"smiles": "COc1ccc(C2Oc3ccccc3CS2)cc1O", "note": "(stereo not shown) [Compound 6]", "values": [{"measurement": "Relative Sweetness", "value": 500}]}
{"smiles": "COc1ccc(C2CCc3ccccc3S2)cc1O", "note": "(stereo not shown) [Compound 10]", "values": [{"measurement": "Relative Sweetness", "value": 200}]}
{"smiles": "COc1ccc(OCc2ccccc2C(=O)O)cc1O", "note": "[Compound 26]", "values": [{"measurement": "Relative Sweetness", "value": 10}]}
{"smiles": "O=C(O)c1ccccc1C(=O)c1ccc(O)c(O)c1", "note": "[Compound 22]", "values": [{"measurement": "Relative Sweetness", "value": 100}]}
{"smiles": "COc1ccc(C2CSc3ccccc3O2)cc1O", "note": "(stereo not shown) [Compound 7]", "values": [{"measurement": "Relative Sweetness", "value": 250}]}
{"smiles": "COc1ccc(C2COc3ccccc3S2)cc1O", "note": "(stereo not shown) [Compound 9]", "values": [{"measurement": "Relative Sweetness", "value": 2000}]}
{"smiles": "Oc1cccc(C2OCc3ccccc3S2)c1", "note": "(stereo not shown) [Compound 18]", "values": [{"measurement": "Relative Sweetness", "value": 100}]}
{"smiles": "COc1ccc(C2CCc3ccccc3O2)cc1O", "note": "(stereo not shown) [Compound 3]", "values": [{"measurement": "Relative Sweetness", "value": 350}]}
{"smiles": "Oc1ccc(C2OCc3ccccc3S2)cc1O", "note": "(stereo not shown) [Compound 17]", "values": [{"measurement": "Relative Sweetness", "value": 200}]}
{"smiles": "COc1ccc(C2OCc3ccccc3S2)cc1S", "note": "(stereo not shown) [Compound 16]", "values": [{"measurement": "Relative Sweetness", "value": 50}]}
{"smiles": "COc1ccc(C(=O)/C=C/C(=O)O)cc1", "note": "[Compound 33]", "values": [{"measurement": "Relative Sweetness", "value": 50}]}
{"smiles": "COc1ccc(CCc2ccccc2)cc1O", "note": "[Compound 27]", "values": [{"measurement": "Relative Sweetness", "value": 300}]}
{"smiles": "COc1ccc(C2CSc3cc(O)ccc3O2)cc1O", "note": "(stereo not shown) [Compound 20]", "values": [{"measurement": "Relative Sweetness", "value": 500}]}
{"smiles": "COc1ccc(CCC(=O)c2c(O)cc(O)cc2O)cc1O", "note": "[Compound 24]", "values": [{"measurement": "Relative Sweetness", "value": 665}]}
{"smiles": "COc1ccc(C2CSc3ccccc3S2)cc1O", "note": "(stereo not shown) [Compound 12]", "values": [{"measurement": "Relative Sweetness", "value": 450}]}
{"smiles": "COc1ccc(C(=O)c2ccccc2C(=O)[O-])cc1.[Na+]", "note": "[Compound 36]", "values": [{"measurement": "Relative Sweetness", "value": 150}]}
